The source of these data is publication PMC9100779, “Simple and Expedient Access to Novel Fluorinated Thiazolo- and Oxazolo[3,2-a]pyrimidin-7-one Derivatives and Their Functionalization via Palladium-Catalyzed Reactions” (Molecules, 2022).

For the assay, the target named is T1, human monoamine oxidase A (hMAO-A) (Homo sapiens, UniProt P21397).
T1 construct: gene MAOA
T1 sequence (P21397 1-527): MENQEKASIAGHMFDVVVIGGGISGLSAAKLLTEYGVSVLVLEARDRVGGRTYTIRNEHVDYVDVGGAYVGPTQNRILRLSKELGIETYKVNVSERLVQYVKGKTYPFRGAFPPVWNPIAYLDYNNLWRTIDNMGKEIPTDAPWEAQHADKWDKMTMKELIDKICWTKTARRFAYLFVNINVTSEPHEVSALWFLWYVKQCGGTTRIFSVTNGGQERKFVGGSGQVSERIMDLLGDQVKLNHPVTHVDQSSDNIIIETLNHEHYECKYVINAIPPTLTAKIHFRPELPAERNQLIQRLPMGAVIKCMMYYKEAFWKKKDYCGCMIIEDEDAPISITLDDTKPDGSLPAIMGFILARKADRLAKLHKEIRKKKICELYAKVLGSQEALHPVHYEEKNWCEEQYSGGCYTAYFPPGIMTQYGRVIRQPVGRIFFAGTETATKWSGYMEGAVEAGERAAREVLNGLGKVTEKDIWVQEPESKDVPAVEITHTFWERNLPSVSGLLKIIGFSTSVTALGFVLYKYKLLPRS
The assay can be described thus: in vitro hMAO-A enzyme inhibition assay with p-tyramine as substrate, serial dilution. It is filed as biochemical.

In general, IC50 refers to the concentration that gives 50% inhibition. Higher therefore signals lower potency.

On to `O=c1cc(C(F)(F)c2ccc(Br)cc2)n2cc(Br)sc2n1` [3g, 2-Bromo-5-[(4-bromophenyl)difluoromethyl]-7H-thiazolo[3,2-a]pyrimidin-7-one], for which half-maximal inhibition (IC50) required 54.1 µM.
